US9334267B2, “RAF inhibitor compounds” (Deciphera Pharmaceuticals, LLC, priority 2012, dated 2016)
pIC50: −log10 of the molar value.

How the values were obtained:
[1] = target: T1, human wild type C-Raf (Homo sapiens, UniProt P04049); assay: Enzymatic assay of C-Raf kinase activity (Raf/MEK1 ATPase, coupled PK/LDH, A340); format: biochemical; conditions: read-out: Enzyme IC50, nM C-Raf
T1 construct: made in house
Procedure: Test compounds are evaluated for their inhibitory activities against one or more of human wild type B-Raf, human wild type C-Raf, human B-Raf V600E, human B-Raf V600E+T529I or human B-Raf V600E+G468A. T529I is a threonine to isoleucine B-Raf gatekeeper mutation and G468A is a B-Raf secondary mutation at G1403C in exon 11. The enzymatic assays of B-Raf, C-Raf and B-Raf mutations evaluate a property of Raf and MEK1 complex, which in the presence of ATP, catalyzes an enhanced ATP hydrolysis (Rominger, et al, Arch. Biochem. Biophys. 2007, 464: 130-137; US Patent Publication No. 2006/0211073). The ADP formed is monitored by the well-known coupled PK/LDH (pyruvate kinase/lactate dehydrogenase) system in the form of NADH oxidation, which can be monitored and detected spectrophotometrically by absorbance at 340 nm (A340; for principal of the method see Schindler et al, Science, 2000, 289: 1938-1942). Raf activated MEK1 ATPase activity is a property shared by all forms of Raf proteins.
Test compounds are evaluated for their inhibitory activities against one or more of wild type B-Raf, wild type C-Raf, B-Raf V600E, B-Raf V600E+T529I and B-Raf V600E+G468A. T529I is a B-Raf gatekeeper mutation and G468A is a B-Raf secondary mutation. The enzymatic assays of B-Raf, C-Raf and B-Raf mutations evaluate a property of Raf and MEK1 complex, which in the presence of ATP, catalyzes an enhanced ATP hydrolysis (Rominger, et al, Arch. Biochem. Biophys. 2007, 464: 130-137). The ADP formed is monitored by the well-known coupled PK/LDH (pyruvate kinase/lactate dehydrogenase) system in the form of NADH oxidation, which can be monitored and detected by absorbance at 340 nm (A340; for principal of the method see Schindler et al, Science, 2000, 289: 1938-1942). Raf activated MEK1 ATPase activity is a property shared by all forms of Raf proteins. In the B-Raf wild type enzymatic assay, the reaction mixture contains 1.2 nM B-Raf, 30 nM MEK1, 1000 uM ATP, 3.5 units (per 100 ul) of PK, 5 units (per 100 ul) of LDH, 1 mM phosphoenol pyruvate (PEP), and 280 uM of NADH. In the C-Raf assay, the reaction mixture contains 0.6 nM C-Raf, 26 nM MEK1, 2000 uM ATP, and the same amount of PK, LDH, PEP and NADH as above. In the B-Raf V600E assay, the reaction mixture contains […] B-Raf V600E, 26 nM MEK1, 200 uM ATP and the same amount of PK, LDH, PEP and NADH as above. In the B-RafV600E+T529I assay, the reaction mixture contains 6.2 nM B-Raf V600E+T529I, 30 nM MEK1, 200 uM ATP and the same amount of PK, LDH, PEP and NADH as above. In the B-Raf V600E+G468A assay, the reaction mixture contains 3.5 nM B-Raf, 30 nM MEK1, 200 uM ATP and the same amount of PK, LDH, PEP and NADH as above. All assays are started by mixing the above mixture with test compound and monitoring at A340 continuously for approximately 5 hr. […] In the aforementioned assays, the enzyme constructs can be screened prior to or after cleavage of the N-terminal purification tag.

[2] = system: A375res cells
[3] = system: A375res cells; assay: Proliferation assay in vemurafenib-resistant melanoma cells A375res; conditions: Homo sapiens, 72 h, read-out: absolute IC50 values

T1 sequence (P04049 whole entry): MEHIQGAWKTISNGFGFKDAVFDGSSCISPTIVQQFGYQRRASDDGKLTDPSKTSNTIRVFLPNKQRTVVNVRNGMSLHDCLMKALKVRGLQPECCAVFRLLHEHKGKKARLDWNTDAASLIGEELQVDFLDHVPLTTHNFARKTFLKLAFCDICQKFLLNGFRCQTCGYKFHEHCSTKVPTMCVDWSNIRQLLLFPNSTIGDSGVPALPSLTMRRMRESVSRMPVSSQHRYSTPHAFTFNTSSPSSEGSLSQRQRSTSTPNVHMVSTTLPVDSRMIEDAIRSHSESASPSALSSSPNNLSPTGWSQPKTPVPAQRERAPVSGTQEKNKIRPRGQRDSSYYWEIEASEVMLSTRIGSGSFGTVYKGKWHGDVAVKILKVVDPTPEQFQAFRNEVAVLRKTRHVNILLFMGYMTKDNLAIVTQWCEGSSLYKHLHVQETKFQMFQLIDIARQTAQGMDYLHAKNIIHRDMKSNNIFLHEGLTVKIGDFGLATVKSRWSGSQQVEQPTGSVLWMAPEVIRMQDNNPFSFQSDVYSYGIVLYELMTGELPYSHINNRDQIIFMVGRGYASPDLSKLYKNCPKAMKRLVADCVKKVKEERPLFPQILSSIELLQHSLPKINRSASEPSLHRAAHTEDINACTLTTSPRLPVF

Which IC50 [1] does the source give for `CNc1ncc2cc(-c3cc(NC(=O)NCCC(C)(C)C#N)c(F)cc3C)c(C)nc2n1` [Example 3, 1-(3-Cyano-3-methylbutyl)-3-(2-fluoro-4-methyl-5-(7-methyl-2-(methylamino)pyrido[2,3-d]pyrimidin-6-yl)phenyl)urea] here?
The IC50 was less than 150 nM.

With `CNc1ncc2cc(-c3cc(NC(=O)NC4CC(C)(C)C4)c(F)cc3C)c(C)nc2n1` [Example 6, 1-(3,3-Dimethylcyclobutyl)-3-(2-fluoro-4-methyl-5-(7-methyl-2-(methylamino)pyrido[2,3-d]pyrimidin-6-yl)phenyl)urea] as the molecule, how does the IC50 [1] read?
Its IC50 is less than 150 nM.

For `CNc1ncc2cc(-c3cc(NC(=O)NC4CC(C)(C)C4)c(F)cc3F)c(C)nc2n1` [Example 7, 1-(2,4-Difluoro-5-(7-methyl-2-(methylamino)pyrido[2,3-d]pyrimidin-6-yl)phenyl)-3-(3,3-dimethylcyclobutyl)urea], which IC50 [1] is on record?
Its IC50 is less than 150 nM.

Which IC50 [1] does the source give for `CNc1ncc2cc(-c3cc(NC(=O)NCC(O)C(C)(C)C)c(F)cc3C)cnc2n1` (stereo not shown) [Example 8, 1-[2-Fluoro-4-methyl-5-(2-methylaminopyrido[2,3-d]pyrimidin-6-yl)phenyl]-3-(2-hydroxy-3,3-dimethyl-butyl)urea] here?
The IC50 was less than 150 nM.

Which IC50 [1] does the source give for `CNc1ncc2cc(-c3cc(NC(=O)NCC4CC4(C)C)c(F)cc3C)cnc2n1` (stereo not shown) [Example 9] here?
Its IC50 is less than 150 nM.

How did the IC50 [1] turn out when `Cc1cc(F)c(NC(=O)NCC(O)C(C)(C)C)cc1-c1cc2cnc(N)nc2nc1C` (stereo not shown) [Example 10] was run?
Its IC50 is less than 150 nM.

How did the IC50 [1] turn out when `CNc1ncc2cc(-c3cc(NC(=O)NCC(O)C(C)(C)C)c(F)cc3F)c(C)nc2n1` (stereo not shown) [Example 11, 1-[2,4-Difluoro-5-(7-methyl-2-methylamino-pyrido[2,3-d]pyrimidin-6-yl)phenyl]-3-(2-hydroxy-3,3-dimethyl-butyl)urea] was run?
The IC50 was less than 150 nM.

`CNc1ncc2cc(-c3cc(NC(=O)NCCC(C)(C)C#N)c(F)cc3F)c(C)nc2n1` [Example 12, 1-(3-Cyano-3-methylbutyl)-3-(2,4-difluoro-5-(7-methyl-2-(methylamino)pyrido[2,3-d]pyrimidin-6-yl)phenyl)urea] was tested. Which IC50 [1] did it give?
The IC50 was less than 150 nM.

Which IC50 [1] does the source give for `CNc1ncc2cc(-c3ccc(F)c(NC(=O)NCCC(C)(C)C#N)c3)c(C)nc2n1` [Example 13, 1-(3-Cyano-3-methylbutyl)-3-(2-fluoro-5-(7-methyl-2-(methylamino)pyrido[2,3-d]pyrimidin-6-yl)phenyl)urea] here?
The IC50 was less than 150 nM.

Which IC50 [1] does the source give for `CNc1ncc2cc(-c3cc(NC(=O)NCCC(C)(C)OC)c(F)cc3C)c(C)nc2n1` [Example 14, 1-(2-Fluoro-4-methyl-5-(7-methyl-2-(methylamino)pyrido[2,3-d]pyrimidin-6-yl)phenyl)-3-(3-methoxy-3-methylbutyl)urea] here?
Its IC50 is less than 150 nM.

With `CNc1ncc2cc(-c3cc(NC(=O)NCC(O)C(C)(C)C)c(F)cc3C)c(C)nc2n1` (stereo not shown) [Example 15, 1-[2-Fluoro-4-methyl-5-(7-methyl-2-methylamino-pyrido[2,3-d]pyrimidin-6-yl)phenyl]-3-(2-hydroxy-3,3-dimethyl-butyl)urea] as the molecule, how does the IC50 [1] read?
The IC50 was less than 150 nM.

And the “IC50 shift A375 to A375res” value [2]?
Its value is 0.6-1.9 fold.

What about the pIC50 [3] of the same molecule?
Its pIC50 is 5.96 to 7.82.

With `Cc1cc(F)c(NC(=O)NCCC(C)(C)C)cc1-c1cc2cnc(NCCO)nc2nc1C` [Example 16, 1-(3,3-Dimethylbutyl)-3-[2-fluoro-5-[2-(2-hydroxyethylamino)-7-methyl-pyrido[2,3-d]pyrimidin-6-yl]-4-methyl-phenyl]urea] as the molecule, how does the IC50 [1] read?
The IC50 was less than 150 nM.

And the “IC50 shift A375 to A375res” value [2]?
Its value is 0.6-1.9 fold.

What about the pIC50 [3] of the same molecule?
Its pIC50 is 5.96 to 7.82.

Which IC50 [1] does the source give for `Cc1cc(F)c(NC(=O)NCCC(C)(C)C)cc1-c1cc2cnc(NCCN(C)C)nc2nc1C` [Example 17, 1-[5-[2-(2-Dimethylaminoethylamino)-7-methyl-pyrido[2,3-d]pyrimidin-6-yl]-2-fluoro-4-methyl-phenyl]-3-(3,3-dimethylbutyl)urea] here?
The IC50 was less than 150 nM.

What about the “IC50 shift A375 to A375res” value [2] of the same molecule?
The value was 0.6-1.9 fold.

What about the pIC50 [3] of the same molecule?
Its pIC50 is 5.96 to 7.82.

Which IC50 [1] does the source give for `CNc1ncc2cc(-c3cc(NC(=O)NC[C@H](O)C(C)(C)C)c(F)cc3C)cnc2n1` [Example 18, 1-[2-Fluoro-4-methyl-5-(2-methylaminopyrido[2,3-d]pyrimidin-6-yl)phenyl]-3-[(2R)-2-hydroxy-3,3-dimethyl-butyl]urea] here?
The IC50 was less than 150 nM.

With `CNc1ncc2cc(-c3cc(NC(=O)NC[C@@H](O)C(C)(C)C)c(F)cc3C)cnc2n1` [Example 19, 1-[2-fluoro-4-methyl-5-(2-methylaminopyrido[2,3-d]pyrimidin-6-yl)phenyl]-3-[(2S)-2-hydroxy-3,3-dimethyl-butyl]urea] as the molecule, how does the IC50 [1] read?
The IC50 was less than 150 nM.

`Cc1cc(F)c(NC(=O)NCCC(C)(C)C)cc1-c1cc2cnc(N)nc2nc1C` [Example 20, 1-(5-(2-Amino-7-methylpyrido[2,3-d]pyrimidin-6-yl)-2-fluoro-4-methylphenyl)-3-(3,3-dimethylbutyl)urea] was tested. Which IC50 [1] did it give?
Its IC50 is less than 150 nM.

And the “IC50 shift A375 to A375res” value [2]?
The value was 0.6-1.9 fold.

And the pIC50 [3]?
Its pIC50 is 5.96 to 7.82.

How did the IC50 [1] turn out when `Cc1cc(F)c(NC(=O)NCCC(C)(C)C)cc1-c1cc2cnc(NCCN3CCOCC3)nc2nc1C` [Example 21, 1-(3,3-Dimethylbutyl)-3-(2-fluoro-4-methyl-5-(7-methyl-2-((2-morpholinoethyl)amino)pyrido[2,3-d]pyrimidin-6-yl)phenyl)ure] was run?
Its IC50 is less than 150 nM.

What about the “IC50 shift A375 to A375res” value [2] of the same molecule?
The value was 0.6-1.9 fold.

What about the pIC50 [3] of the same molecule?
The pIC50 was 5.96 to 7.82.

`Cc1cc(F)c(NC(=O)NCCC(C)(C)C)cc1-c1cc2cnc(NCc3cn(C)cn3)nc2nc1C` [Example 22, 1-(3,3-Dimethylbutyl)-3-(2-fluoro-4-methyl-5-(7-methyl-2-(((1-methyl-1H-imidazol-4-yl)methyl)amino)pyrido[2,3-d]pyrimidin-6-yl)phenyl)urea] was tested. Which IC50 [1] did it give?
The IC50 was less than 150 nM.

For `Cc1cc(F)c(NC(=O)NCCC2(C)CC2)cc1-c1cc2cnc(N)nc2nc1C` [Example 23, 1-(5-(2-Amino-7-methylpyrido[2,3-d]pyrimidin-6-yl)-2-fluoro-4-methylphenyl)-3-(2-(1-methylcyclopropyl)ethyl)urea], which IC50 [1] is on record?
Its IC50 is less than 150 nM.

With `CCNc1ncc2cc(-c3cc(NC(=O)NCCC(C)(C)F)c(F)cc3C)c(C)nc2n1` [Example 26, 1-(5-(2-(Ethylamino)-7-methylpyrido[2,3-d]pyrimidin-6-yl)-2-fluoro-4-methylphenyl)-3-(3-fluoro-3-methylbutyl)urea] as the molecule, how does the IC50 [1] read?
The IC50 was less than 150 nM.

And the “IC50 shift A375 to A375res” value [2]?
The value was 0.6-1.9 fold.

What about the pIC50 [3] of the same molecule?
Its pIC50 is 5.96 to 7.82.

`Cc1cc(F)c(NC(=O)NCCC(C)(C)F)cc1-c1cc2cnc(NCCO)nc2nc1C` [Example 29, 1-(3-Fluoro-3-methylbutyl)-3-(2-fluoro-5-(2-((2-hydroxyethyl)amino)-7-methylpyrido[2,3-d]pyrimidin-6-yl)-4-methylphenyl)urea] was tested. Which IC50 [1] did it give?
Its IC50 is less than 150 nM.

For `COCCNc1ncc2cc(-c3cc(NC(=O)NC4CC(C)(C)C4)c(F)cc3C)c(C)nc2n1` [Example 31, 1-(3,3-Dimethylcyclobutyl)-3-(2-fluoro-5-(2-((2-methoxyethyl)amino)-7-methylpyrido[2,3-d]pyrimidin-6-yl)-4-methylphenyl)urea], which IC50 [1] is on record?
Its IC50 is less than 150 nM.

Which IC50 [1] does the source give for `CNc1ncc2cc(-c3cc(NC(=O)NCCC(C)(C)C)c(F)cc3Br)c(C)nc2n1` [Example 32, 1-(4-Bromo-2-fluoro-5-(7-methyl-2-(methylamino)pyrido[2,3-d]pyrimidin-6-yl)phenyl)-3-(3,3-dimethylbutyl)urea] here?
Its IC50 is less than 150 nM.

Which IC50 [1] does the source give for `CC(=O)Nc1ncc2cc(-c3cc(NC(=O)NCCC(C)(C)C)c(F)cc3C)c(C)nc2n1` [Example 33, N-(6-(5-(3-(3,3-Dimethylbutyl)ureido)-4-fluoro-2-methylphenyl)-7-methylpyrido[2,3-d]pyrimidin-2-yl)acetamide] here?
Its IC50 is less than 150 nM.

Which IC50 [1] does the source give for `CNc1ncc2cc(-c3cc(NC(=O)NCCC(C)(C)C)c(F)cc3F)cnc2n1` [Example 36, 1-(2,4-Difluoro-5-(2-(methylamino)pyrido[2,3-d]pyrimidin-6-yl)phenyl)-3-(3,3-dimethylbutyl)urea methanesulfonate] here?
The IC50 was less than 150 nM.
